Measured values from paper PMC9619929, “Conditional Antimicrobial Peptide Therapeutics” (ACS Nano, 2022).

Assays:
Toxicity evaluation = type: in vivo, mouse
Method: ABD-AMP conjugates at different doses were intravenously administered to CD-1 mice. The mice were closely monitored for 24 h before euthanization unless significant morbidity was observed that necessitated early euthanization. Blood samples were drawn via cardiac puncture and dispensed into serum separator tubes (BD Microtainer). The samples were left to clot for at least 30 min and spun at 15 000 rcf for 1.5 min to separate serum. The serum samples were frozen in a −20 °C freezer and submitted for serum chemistry analysis by MIT Diagnostic Laboratory (MIT Division of Comparative Medicine). Serum levels of pro-inflammatory cytokine IL-6 and TNF-α were quantified using ELISA MAX standard sets (BioLegend, CA, U.S.A.) following the manufacturer’s protocol. Organs were harvested, fixed in 10% formalin at RT for 24 h, sectioned into 5 μm slices, and stained with H&E for analysis. The slides were evaluated by a veterinary pathologist blind to the treatment groups and were digitized using a Pannoramic digital slide scanner at 20× magnification.

[1] = mouse, in vivo, iv
Method: All animal studies were approved by the Massachusetts Institute of Technology’s Committee on Animal Care (MIT protocol 0619-034-22). CD-1 mice (11–12 weeks old) were rendered neutropenic by intraperitoneal injections of cyclophosphamide at 4 d (150 mg/kg) and 1 d (100 mg/kg) prior to infection. PAO1 inoculation was performed by intratracheal instillation of PAO1 suspension (2 × 10^5 cfu in 50 μL PBS) via a 22G blunt-end catheter (EXCEL International). For BALF collection, the mice were first euthanized. An incision into the trachea was made with a needle puncture where lavage was performed with PBS (1 mL) via a catheter-fitted syringe. BALFs were centrifuged to remove cells, aliquoted, and stored in a −20 °C freezer.
ABD-AMP-Cy7 conjugates (15 nmol) were intravenously administered at 6 h post infection. The mice were euthanized 2 h after and organs were harvested for imaging with an Odyssey CLx imager. After imaging, organs were homogenized in PBS supplemented with Halt protease inhibitor cocktail (ThermoFisher Scientific, MA, U.S.A.) using a gentleMAC dissociator (Miltenyi Biotec, CA, U.S.A.). The homogenates were pelleted and the supernatants were used for SDS-PAGE analysis.

Pharmacokinetics study = type: in vivo, mouse; conditions: 15 nmol IV, CD-1 mice, blood, n = 4
Method: ABD-AMP-Cy7 conjugates (15 nmol) were intravenously administered to CD-1 mice. At different time intervals, blood samples (5 μL) were collected via saphenous vein bleeding using heparin-coated capillary tubes. Blood samples were diluted 10-fold in PBS supplemented with Halt protease inhibitor cocktail and EDTA and centrifuged to remove cells. The supernatants were used to quantify conjugate concentration via SDS-PAGE analysis.

| Molecule | Signs of distress over the observation period (Toxicity evaluation; 10 mg/kg (AMP eq) IV, 24 h) | Histology evaluation of organs (H&E) (Toxicity evaluation; 10 mg/kg (AMP eq) IV, 24 h, blinded veterinary pathologist, n = 3) | Mice that did not survive to the study end point (Toxicity evaluation; 10 mg/kg IV, 24 h) | Serum pro-inflammatory cytokine IL-6 (Toxicity evaluation; 10 mg/kg IV, ELISA) | Serum levels of ALT, AST, BUN and creatinine (Toxicity evaluation; IV, 5 and 10 mg/kg AMP eq, 24 h, (D)Pex result at 10 mg/kg, n = 3–5) | Maximum tolerated dose (MTD) (Toxicity evaluation; IV, CD-1 mice, monitored 24 h) [mg/kg] | AUC ((D)Pex-Cy7), kidneys [1] [% ID*h/g] | AUC ((D)Pex-Cy7), liver [1] [% ID*h/g] | AUC ((D)Pex-Cy7), lungs [1] [% ID*h/g] | AUC ((D)Pex-Cy7), spleen [1] [% ID*h/g] | AUC (Pharmacokinetics study; SDS-PAGE Cy7 quantification) [µM·h] | t1/2,α (Pharmacokinetics study) [min] | t1/2,β (Pharmacokinetics study) [min] |
| --- | --- | --- | --- | --- | --- | --- | --- | --- | --- | --- | --- | --- | --- |
| CC[C@@H](C)[C@@H](NC(=O)CN)C(=O)NCC(=O)N[C@H](CCCCN)C(=O)N[C@H](Cc1ccccc1)C(=O)N[C@H](CC(C)C)C(=O)N[C@H](CCCCN)C(=O)N[C@H](CCCCN)C(=O)N[C@H](C)C(=O)N[C@H](CCCCN)C(=O)N[C@H](CCCCN)C(=O)N[C@H](Cc1ccccc1)C(=O)NCC(=O)N[C@H](CCCCN)C(=O)N[C@H](C)C(=O)N[C@H](Cc1ccccc1)C(=O)N[C@@H](C(=O)N[C@H](CCCCN)C(=O)N[C@@H](C(=O)N[C@H](CC(C)C)C(=O)N[C@H](CCCCN)C(=O)N[C@H](CCCCN)C(N)=O)[C@H](C)CC)C(C)C [(D)Pex] | signs of distress | Pathological damage was observed in kidneys and spleen | 3 of 5 | significantly elevated | elevated beyond a normal reference range | 5 |  |  |  |  |  |  |  |
| Azidoacetyl–GiGkflkkakkfGkafvkilkk–K(Cy7)–CONH2 [(D)Pex-Cy7, free unconjugated Cy7-labelled (D)Pex control] |  |  |  |  |  |  | 14.1 | 112 | 5.29 | 23.5 | 2.08 | 35.3 | 35.6 |
